Reference: patent US7119094B1, “Substituted polycyclic aryl and heteroarpyl pyrazinones useful for selective inhibition of the coagulation cascade” (Warner-Lambert Company, priority 2000, dated 2006)
Like-named read-outs stand apart in the source and are kept apart here.

Key:
Assay type in all cases: biochemical
[1] = biological target: T1, recombinant soluble tissue factor and recombinant human factor VIIa (TF-VIIa) (Homo sapiens, UniProt P08709); assay: TF-VIIa Assay
T1 construct: conversion of coagulation factor VII to VIIa by Xa; purchased American Diagnostica, Greenwich Conn; host or cells: factor VIIa purchased; soluble TF made in house in E. coli

Human factor Xa = biological target: T2, Human factor Xa (Homo sapiens, UniProt P00742); assay: Xa Assay; details: for % Inhibition Factor Xa (30 µM): at 30 µM
T2 construct: Human factor Xa (0.3 nM); purchased Enzyme Research Laboratories, South Bend Ind

[2] = biological target: T3, Trypsin (type 1× from porcine pancreas) (Sus scrofa, UniProt P00761); assay: Trypsin Assay
T3 construct: Trypsin (5 ug/ml; type 1× from porcine pancreas); purchased Sigma, St. Louis Mo; host or cells: porcine pancreas

[3] = cells without % sign, read-out: IC50 TF-VIIa
[4] = cells without % sign, read-out: IC50 Trypsin II

T1 sequence (P08709 213-466 limits assumed): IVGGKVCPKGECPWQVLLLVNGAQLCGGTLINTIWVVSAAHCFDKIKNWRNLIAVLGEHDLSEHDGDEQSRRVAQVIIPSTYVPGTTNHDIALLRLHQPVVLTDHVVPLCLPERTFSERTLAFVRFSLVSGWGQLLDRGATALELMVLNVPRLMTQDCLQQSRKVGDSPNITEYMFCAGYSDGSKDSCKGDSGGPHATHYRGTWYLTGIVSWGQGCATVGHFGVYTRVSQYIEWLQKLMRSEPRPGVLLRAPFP
T1 sequence (P08709 61-212 limits assumed): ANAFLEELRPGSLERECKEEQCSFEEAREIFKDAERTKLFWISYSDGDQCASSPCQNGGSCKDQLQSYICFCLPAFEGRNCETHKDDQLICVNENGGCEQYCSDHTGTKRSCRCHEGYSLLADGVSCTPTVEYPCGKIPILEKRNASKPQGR
T1 sequence (P13726 33-251 partner limits assumed): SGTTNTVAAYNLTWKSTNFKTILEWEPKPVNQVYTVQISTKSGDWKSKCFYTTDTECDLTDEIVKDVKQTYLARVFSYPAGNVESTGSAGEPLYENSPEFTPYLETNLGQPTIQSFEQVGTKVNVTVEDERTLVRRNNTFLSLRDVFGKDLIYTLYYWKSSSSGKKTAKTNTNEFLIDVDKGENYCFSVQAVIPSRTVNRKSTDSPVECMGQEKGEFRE
T3 sequence (P00761 9-231): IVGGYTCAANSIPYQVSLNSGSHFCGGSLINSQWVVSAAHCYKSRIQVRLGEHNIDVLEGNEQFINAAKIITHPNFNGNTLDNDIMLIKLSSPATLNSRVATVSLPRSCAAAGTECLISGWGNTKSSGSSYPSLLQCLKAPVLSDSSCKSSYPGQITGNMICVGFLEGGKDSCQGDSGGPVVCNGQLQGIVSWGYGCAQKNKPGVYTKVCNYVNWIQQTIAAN
T2 sequence (P00742 235-488 limits assumed): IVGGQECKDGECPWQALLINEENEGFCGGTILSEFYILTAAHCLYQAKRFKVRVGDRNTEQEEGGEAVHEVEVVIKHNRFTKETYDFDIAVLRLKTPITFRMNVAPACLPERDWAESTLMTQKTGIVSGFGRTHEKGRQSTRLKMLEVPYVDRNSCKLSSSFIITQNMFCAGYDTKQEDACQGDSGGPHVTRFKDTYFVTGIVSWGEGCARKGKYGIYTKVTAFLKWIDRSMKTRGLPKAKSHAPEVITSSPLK
T2 sequence (P00742 41-179 limits assumed): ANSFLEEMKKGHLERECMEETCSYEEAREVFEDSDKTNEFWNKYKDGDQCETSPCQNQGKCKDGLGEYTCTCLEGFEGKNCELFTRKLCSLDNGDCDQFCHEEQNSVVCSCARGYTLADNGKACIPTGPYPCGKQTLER

Row | Structure (SMILES) | % Inhibition TF-VIIa (100 νM) ([1]; inhibitor at 100 νM) [%] | % Inhibition Trpysin II (100 νM) ([2]; inhibitor at 100 νM) [%] | also measured
1 | CC(C(=O)NCc1ccc(C(=N)N)cc1)n1c(-c2ccccc2)c(Cl)nc(NCCc2ccccc2)c1=O (stereo not drawn) [Example 1517-15] |  |  | IC50 [1, 3]: 3100 nM; % Inhibition Factor Xa (30 µM) (Human factor Xa; cells with % sign, and bare 0): 0%; IC50 [2, 4]: 1500 nM
2 | CC(CC(=O)O)Nc1nc(Cl)c(-c2cccc(N)c2)n(CC(=O)NCc2ccc(C(=N)N)cc2)c1=O (stereo not drawn) [Example 130] |  |  | % Inhibition Factor Xa at 100 μM (Human factor Xa): 24% at
3 | Nc1cccc(-c2c(Cl)nc(NC3CCC3)c(=O)n2CC(=O)N2CCC3(CC2)OCCO3)c1 [1543-41] |  |  | % Inhibition TF-VIIa (30 µM) ([1]; at 30 µM, cells with % sign): 3%; % Inhibition Factor Xa (30 µM) (Human factor Xa; cells with % sign, and bare 0): 9%; % Inhibition Trypsin II (30 µM) ([2]; at 30 µM, cells with % sign): 6%
4 | CC(C(=O)NCc1ccc(C(=N)N)cc1)n1c(-c2ccccc2)c(Cl)nc(NCCc2ccccc2)c1=O (stereo not drawn) [Example 1517-17] |  |  | IC50 [1, 3]: 1800 nM; % Inhibition Factor Xa (30 µM) (Human factor Xa; cells with % sign, and bare 0): 0%; IC50 [2, 4]: 850 nM
5 | N=C(N)c1ccc(CNC(=O)Cn2c(-c3cccc(N)c3)c(Cl)nc(NC(CC(=O)O)c3ccccc3)c2=O)cc1 (racemic) [Example 131] |  |  | IC50 ([1]; read-out: IC50 TF-VIIa, cell printed 'at 100 μM', cell adds 'at 100 μM'): 140 nM; % Inhibition Factor Xa at 100 μM (Human factor Xa): 21% at; IC50 ([2]; read-out: IC50 Trypsin II, cell printed 'at 100 μM', cell adds 'at 100 μM'): 48 nM
6 | CC(C(=O)NCc1ccc(C(=N)N)cc1)n1c(-c2ccccc2)c(Cl)nc(NC2CCC2)c1=O (stereo not drawn) [Example 1517-11] |  |  | IC50 [1, 3]: 3000 nM; % Inhibition Factor Xa (30 µM) (Human factor Xa; cells with % sign, and bare 0): 0%; IC50 [2, 4]: 1900 nM
7 | COCC(C)Nc1nc(Cl)c(-c2ccccc2)n(CC(=O)NCc2ccc(C(=N)N)cc2)c1=O (stereo not drawn) [1512-07] |  |  | IC50 ([1]; read-out: IC50 TF-VIIa): 3600 nM; % Inhibition Factor Xa (30 µM) (Human factor Xa): 4%
8 | O=C(Cn1c(-c2ccc3c(c2)OCO3)c(Cl)nc(NCCc2ccc(Cl)cc2)c1=O)NCCc1ccncc1 [Example E-0044] | 0 | 3 | 
9 | O=C(Cn1c(-c2ccc3c(c2)OCO3)c(Cl)nc(NCCc2ccncc2)c1=O)NCCc1ccncc1 [Example E-0046] | 0 | 4 | 
10 | COc1ccc(-c2c(Cl)nc(NCc3ccccc3)c(=O)n2CC(=O)NCCc2ccncc2)cc1 [Example E-0033] | 0 | 5 | 
11 | O=C(Cn1c(-c2cccc(Cl)c2)c(Cl)nc(NCc2ccccc2)c1=O)NCCc1ccncc1 [Example E-0085] | 0 | 9 | 
12 | Cc1c(Cl)nc(NCc2ccncc2)c(=O)n1CC(=O)NCCc1ccncc1 [Example E-0008] | 0 | 0 | 
13 | O=C(Cn1c(-c2ccc(Cl)cc2)c(Cl)nc(NCc2ccncc2)c1=O)NCCc1ccncc1 [Example E-0024] | 0 | 1 | 
14 | Cc1c(Cl)nc(NCCc2ccc(Cl)cc2)c(=O)n1CC(=O)NCCc1ccncc1 [Example E-0004] | 0 | 0 | 
15 | CC(C)Nc1nc(Cl)c(-c2cc(N)cc(C(=O)NCc3ccc(Cl)cc3Cl)c2)n(CC(=O)NCc2ccc(C(=N)N)cc2)c1=O [Example 128-5] |  |  | % Inhibition Factor Xa at 100 μM (Human factor Xa): 43% at
16 | O=C(Cn1c(-c2cccc(Cl)c2)c(Cl)nc(NCCc2ccccc2)c1=O)NCCc1ccncc1 [Example E-0076] | 0 | 10 | 
17 | O=C(Cn1c(-c2ccc(Cl)cc2)c(Cl)nc(NCc2ccccc2)c1=O)NCCc1ccncc1 [Example E-0025] | 0 | 3 | 
18 | O=C(Cn1c(-c2cccc(Cl)c2)c(Cl)nc(NCCc2cccc(Cl)c2)c1=O)NCCc1cccnc1 [Example E-0092] | 1 | 9 | 
19 | O=C(Cn1c(-c2cccc(Cl)c2)c(Cl)nc(NCCc2cccc(Cl)c2)c1=O)NCCc1ccncc1 [Example E-0079] | 0 | 11 | 
20 | O=C(Cn1c(-c2ccc(-c3ccccc3)cc2)c(Cl)nc(NCc2ccccc2)c1=O)NCCc1ccncc1 [Example E-0109] |  |  | % Inhibition TF-VIIa (100 νM) [1]: 2%; % Inhibition Trpysin II (100 νM) [2]: 12%
21 | O=C(Cn1c(CCc2ccccc2)c(Cl)nc(NCc2ccncc2)c1=O)NCCc1ccncc1 [Example E-0072] | 0 | 0 | 
22 | O=C(Cn1c(CCc2ccccc2)c(Cl)nc(NCCc2ccc(Cl)cc2)c1=O)NCCc1ccncc1 [Example E-0068] | 0 | 0 | 

Row | Structure (SMILES) | % Inhibition TF-VIIa (100 νM) ([1]; inhibitor at 100 νM) [%] | % Inhibition Trpysin II (100 νM) ([2]; inhibitor at 100 νM) [%] | also measured
23 | COc1ccc(-c2c(Cl)nc(NCc3ccncc3)c(=O)n2CC(=O)NCCc2ccncc2)cc1 [Example E-0040] | 0 | 4 | 
24 | COc1ccc(-c2c(Cl)nc(NCCc3cccc(Cl)c3)c(=O)n2CC(=O)NCCc2cccnc2)cc1 [Example E-0104] | 3 | 9 | 
25 | O=C(Cn1c(-c2cccc(Cl)c2)c(Cl)nc(NCCc2ccccc2)c1=O)NCCc1ccncc1 [Example E-0088] | 0 | 9 | 
26 | Cc1c(Cl)nc(NCCc2ccccc2)c(=O)n1CC(=O)NCCc1ccncc1 [Example E-0002] | 0 | 0 | 
27 | O=C(Cn1c(Cc2ccccc2)c(Cl)nc(NCc2ccncc2)c1=O)NCCc1ccncc1 [Example E-0064] | 0 | 0 | 
28 | O=C(Cn1c(CCc2ccccc2)c(Cl)nc(NCCc2cccnc2)c1=O)NCCc1ccncc1 [Example E-0069] | 0 | 0 | 
29 | O=C(Cn1c(-c2ccc(Cl)cc2)c(Cl)nc(NCCN2CCOCC2)c1=O)NCCc1ccncc1 [Example E-0023] | 0 | 1 | 
30 | COc1ccc(-c2c(Cl)nc(NCCc3ccccc3)c(=O)n2CC(=O)NCCc2ccncc2)cc1 [Example E-0034] | 0 | 3 | 
31 | O=C(Cn1c(-c2ccc(Cl)cc2)c(Cl)nc(NCCc2ccccc2)c1=O)NCCc1ccncc1 [Example E-0018] | 1 | 4 | 
32 | O=C(Cn1c(Cc2ccccc2)c(Cl)nc(NCCc2ccccc2)c1=O)NCCc1ccncc1 [Example E-0058] | 0 | 0 | 
33 | O=C(Cn1c(-c2ccc(Cl)cc2)c(Cl)nc(NCCc2ccc(Cl)cc2)c1=O)NCCc1ccncc1 [Example E-0028] | 0 | 3 | 
34 | O=C(Cn1c(Cc2ccccc2)c(Cl)nc(NCc2ccccc2)c1=O)NCCc1ccncc1 [Example E-0057] | 0 | 0 | 
35 | C[C@H](Nc1nc(Cl)c(-c2cccc(N)c2)n(CC(=O)NCc2ccc(C(=N)N)cc2)c1=O)C(=O)O [Example 135] |  |  | % Inhibition Factor Xa at 100 μM (Human factor Xa): 6% at
36 | O=C(Cn1c(-c2ccccc2)c(Cl)nc(NCCc2cccc(Cl)c2)c1=O)NCCc1ccncc1 [Example E-0011] | 0 | 0 | 
37 | CC(C)Nc1nc(Cl)c(-c2cc(N)cc(C(=O)NCc3ccc(Br)cc3)c2)n(CC(=O)NCc2ccc(C(=N)N)cc2)c1=O [Example 128-8] |  |  | % Inhibition Factor Xa at 100 μM (Human factor Xa): 44% at
38 | O=C(Cn1c(-c2cccc(Cl)c2)c(Cl)nc(NCc2ccccc2)c1=O)NCCc1cccnc1 [Example E-0074] | 0 | 8 | 
39 | Cc1c(Cl)nc(NCCc2ccncc2)c(=O)n1CC(=O)NCCc1ccncc1 [Example E-0006] | 2 | 1 | 
40 | O=C(Cn1c(-c2ccc3c(c2)OCO3)c(Cl)nc(NCCc2ccccc2)c1=O)NCCc1ccncc1 [Example E-0042] | 0 | 5 | 
41 | O=C(Cn1c(-c2ccc(Cl)cc2)c(Cl)nc(NCCc2ccc(Cl)cc2)c1=O)NCCc1ccncc1 [Example E-0020] | 0 | 4 | 
42 | Cc1c(Cl)nc(NCCc2cccnc2)c(=O)n1CC(=O)NCCc1ccncc1 [Example E-0005] | 0 | 0 | 
43 | O=C(Cn1c(-c2ccc(Cl)cc2)c(Cl)nc(NCCc2ccccc2)c1=O)NCCc1ccncc1 [Example E-0026] | 0 | 3 | 
